Results on 19 molecules are retold here after patent US8916575B2, “Quinazoline derivatives for the treatment of viral infections and further diseases” (Janssen R&D Ireland, priority 2011, dated 2014).

For assay [1], the target named is T1, human TLR8 (Homo sapiens, UniProt Q9NR97).
T1 construct: expressed in transfected cells; host or cells: HEK293
T1 sequence (Q9NR97 27-1041): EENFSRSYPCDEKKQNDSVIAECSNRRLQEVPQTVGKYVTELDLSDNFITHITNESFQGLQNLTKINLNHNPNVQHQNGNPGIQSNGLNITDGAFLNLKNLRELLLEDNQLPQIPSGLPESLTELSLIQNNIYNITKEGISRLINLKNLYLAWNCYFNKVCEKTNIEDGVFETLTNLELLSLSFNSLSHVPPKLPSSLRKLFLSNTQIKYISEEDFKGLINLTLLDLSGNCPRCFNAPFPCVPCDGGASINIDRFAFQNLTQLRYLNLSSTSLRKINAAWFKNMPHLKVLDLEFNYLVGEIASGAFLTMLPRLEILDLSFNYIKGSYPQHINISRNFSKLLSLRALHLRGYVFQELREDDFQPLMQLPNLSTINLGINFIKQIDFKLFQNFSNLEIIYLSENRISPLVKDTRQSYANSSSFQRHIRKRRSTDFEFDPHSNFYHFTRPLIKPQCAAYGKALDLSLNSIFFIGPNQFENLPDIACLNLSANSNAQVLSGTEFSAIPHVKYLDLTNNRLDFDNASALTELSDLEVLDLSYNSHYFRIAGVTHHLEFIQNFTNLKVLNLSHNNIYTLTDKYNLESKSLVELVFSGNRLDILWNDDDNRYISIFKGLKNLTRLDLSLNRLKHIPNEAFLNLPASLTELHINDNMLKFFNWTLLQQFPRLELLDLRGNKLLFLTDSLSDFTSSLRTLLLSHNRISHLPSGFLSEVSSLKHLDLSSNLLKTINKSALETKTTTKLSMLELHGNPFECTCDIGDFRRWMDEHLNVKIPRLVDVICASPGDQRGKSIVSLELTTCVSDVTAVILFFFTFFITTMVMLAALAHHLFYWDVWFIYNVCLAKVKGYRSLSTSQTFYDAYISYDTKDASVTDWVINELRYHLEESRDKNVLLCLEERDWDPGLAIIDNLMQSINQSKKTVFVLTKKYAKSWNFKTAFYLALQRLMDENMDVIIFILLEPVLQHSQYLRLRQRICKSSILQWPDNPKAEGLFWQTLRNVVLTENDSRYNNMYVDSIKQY
The experiment in a line: TLR8 wild type NFκB-luc cellular reporter assay. It counts as cell-based. On the set-up: unit not given here. Conditions: HEK293 NFκB-luc reporter, 6 hours incubation; for TLR8-wt (LEC): second part of table. On the procedure:
(§1) The ability of compounds to activate human TLR7 and/or TLR8 was assessed in a cellular reporter assay using HEK293 cells transiently transfected with a TLR7 or TLR8 expression vector and NFκB-luc reporter construct. In one instance the TLR expression construct expresses the respective wild type sequence or a mutant sequence comprising a deletion in the second leucine-rich repeat of the TLR.
(§2) Briefly, HEK293 cells were grown in culture medium (DMEM supplemented with 10% FCS and 2 mM Glutamine). For transfection of cells in 10 cm dishes, cells were detached with Trypsin-EDTA, transfected with a mix of CMV-TLR7 or TLR8 plasmid (750 ng), NFκB-luc plasmid (375 ng) and a transfection reagent and incubated 24 hours at 37° C. in a humidified 5% CO2 atmosphere. Transfected cells were then detached with Trypsin-EDTA, washed in PBS and resuspended in medium to a density of 1.67×10^5 cells/mL. Thirty microliters of cells were then dispensed into each well in 384-well plates, where 10 μL of compound in 4% DMSO was already present. Following 6 hours incubation at 37° C., 5% CO2, the luciferase activity was determined by adding 15 μl of Steady Lite Plus substrate (Perkin Elmer) to each well and readout performed on a ViewLux ultraHTS microplate imager (Perkin Elmer). Dose response curves were generated from measurements performed in quadruplicates. Lowest effective concentrations (LEC) values, defined as the concentration that induces an effect which is at least two fold above the standard deviation of the assay, were determined for each compound.

Assay [2] concerns HCV replicon (Huh-7 luc/neo cells). The experiment in a line: Suppression of HCV replicon replication by conditioned media from PBMC. It counts as cell-based, HCV type 1b. To be noted: Hepatitis C virus, compound concentration applied to PBMCs giving 50% reduction of replicon luciferase activity, read-out: PBMC-HUH7_EC50. The method, then: Activation of human TLR7 results in robust production of interferon by plasmacytoid dendritic cells present in human blood. The potential of compounds to induce interferon was evaluated by looking at the antiviral activity in the HCV replicon system upon incubation with conditioned media from peripheral blood mononuclear cells (PBMC). The HCV replicon assay is based on a bicistronic expression construct, as described by Lohmann et al. (Science (1999) 285: 110-113; Journal of Virology (2003) 77: 3007-15 3019) with modifications described by Krieger et al. (Journal of Virology (2001) 75: 4614-4624). The assay utilized the stably transfected cell line Huh-7 luc/neo harboring an RNA encoding a bicistronic expression construct comprising the wild type NS3-NS5B regions of HCV type 1b translated from an Internal Ribosome Entry Site (IRES) from encephalomyocarditis virus (EMCV), preceded by a reporter gene (Firefly-luciferase) and a selectable marker gene (neoR, neomycine phosphotransferase). The construct is flanked by 5′ and 3′ NTRs (non-translated regions) from HCV type 1b. Continued culture of the replicon cells in the presence of G418 (neoR) is dependent on the replication of the HCV RNA. The stably transfected replicon cells that replicate HCV RNA autonomously and to high levels, encoding inter alia luciferase, were used for profiling of the conditioned cell culture media.
Briefly, PBMCs were prepared from buffy coats of at least two donors using a standard Ficoll centrifugation protocol. Isolated PBMCs were resuspended in RPMI medium supplemented with 10% human AB serum and 2×10^5 cells/well were dispensed into 384-well plates containing compounds (70 μL total volume). After overnight incubation, 10 μL of supernatant was transferred to 384-well plates containing 2.2×10^3 replicon cells/well in 30 μL (plated the day before). Following 24 hours of incubation, replication was measured by assaying luciferase activity using 40 μL/well Steady Lite Plus substrate (Perkin Elmer) and measured with ViewLux ultraHTS microplate imager (Perkin Elmer). The inhibitory activity of each compound on the Huh7-luc/neo cells were reported as EC50 values, defined as the compound concentration applied to the PBMCs resulting in a 50% reduction of luciferase activity which in turn indicates the degree of replication of the replicon RNA on transfer of a defined amount of PBMC culture medium. Recombinant interferon α-2a (Roferon-A) was used as a standard control compound.

The test system of assay [3] is human TLR7 mutant (dIRR2). The experiment in a line: TLR7 mutant (deletion in second leucine-rich repeat) NFκB-luc cellular reporter assay. It counts as cell-based. Set-up: unit not given here. Conditions: HEK293 NFκB-luc reporter, mutant TLR7, 6 hours incubation. The method, then: as §1, §2
Assay [4] concerns human TLR8 mutant (dIRR2). Kind of assay: TLR8 mutant (deletion in second leucine-rich repeat) NFκB-luc cellular reporter assay. It counts as cell-based. On the set-up: unit not given here. Conditions: HEK293 NFκB-luc reporter, mutant TLR8, 6 hours incubation. On the procedure: as §1, §2
For assay [5], the target named is T2, human TLR7 (Homo sapiens, UniProt Q9NYK1).
T2 construct: expressed in transfected cells; host or cells: HEK293
T2 sequence (Q9NYK1 27-1049): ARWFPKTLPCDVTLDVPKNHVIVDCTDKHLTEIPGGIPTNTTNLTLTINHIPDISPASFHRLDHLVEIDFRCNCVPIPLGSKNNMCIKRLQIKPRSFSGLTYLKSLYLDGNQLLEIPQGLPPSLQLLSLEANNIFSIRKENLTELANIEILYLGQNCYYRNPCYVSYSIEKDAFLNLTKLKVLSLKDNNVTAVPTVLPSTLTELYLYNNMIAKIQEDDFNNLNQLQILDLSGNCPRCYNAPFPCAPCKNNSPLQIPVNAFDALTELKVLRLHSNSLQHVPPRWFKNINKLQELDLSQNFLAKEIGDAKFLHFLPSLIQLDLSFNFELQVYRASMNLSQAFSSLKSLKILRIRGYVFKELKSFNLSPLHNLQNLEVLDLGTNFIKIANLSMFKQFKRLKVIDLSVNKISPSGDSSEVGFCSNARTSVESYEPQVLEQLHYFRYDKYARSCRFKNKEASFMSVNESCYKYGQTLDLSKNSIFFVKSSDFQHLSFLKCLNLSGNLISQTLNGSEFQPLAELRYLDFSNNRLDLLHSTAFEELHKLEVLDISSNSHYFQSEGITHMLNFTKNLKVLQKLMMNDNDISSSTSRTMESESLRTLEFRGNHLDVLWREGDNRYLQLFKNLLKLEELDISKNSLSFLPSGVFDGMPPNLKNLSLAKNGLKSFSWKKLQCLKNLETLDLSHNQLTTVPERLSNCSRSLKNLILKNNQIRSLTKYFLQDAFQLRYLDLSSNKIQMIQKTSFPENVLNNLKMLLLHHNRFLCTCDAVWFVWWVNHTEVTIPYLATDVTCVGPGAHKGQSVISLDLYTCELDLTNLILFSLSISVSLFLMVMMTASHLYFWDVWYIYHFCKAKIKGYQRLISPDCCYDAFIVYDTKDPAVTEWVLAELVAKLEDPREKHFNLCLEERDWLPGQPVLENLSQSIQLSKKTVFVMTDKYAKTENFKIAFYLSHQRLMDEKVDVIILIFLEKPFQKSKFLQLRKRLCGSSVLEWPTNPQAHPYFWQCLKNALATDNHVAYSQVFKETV
The experiment in a line: TLR7 wild type NFκB-luc cellular reporter assay. It counts as cell-based. On the set-up: unit not given here. Conditions: HEK293 NFκB-luc reporter, 6 hours incubation; for TLR7-wt (LEC): second part of table. On the procedure: as §1
as §2, with “Following 6 hours incubation at 37° C., 5% CO2, the luciferase activity was determined by adding 15 μl of Steady Lite Plus substrate (Perkin Elmer) to each well and readout performed on a ViewLux ultraHTS microplate imager (Perkin Elmer).” left out

A value given as a limit tells only on which side of the number the result lay.

Consider `CCCCCNc1nc(N)nc2cc(OC)c(OC)cc12` [Compound 2], for which, in assay [1], the TLR8-wt_LEC was 1.5. In assay [2], the EC50 amounted to 4.4 µM. In addition, the TLR7-dIRR2_LEC in assay [3] stood at 1.2. This molecule also registered a TLR8-dIRR2_LEC in assay [4] of 0.6.
In assay [1], `CCCCNc1nc(N)nc2ccccc12` [Compound 8] had a TLR8-wt_LEC of 0.1. In addition, the TLR7-wt_LEC in assay [5] (lowest effective concentration) is 0.1. In addition, in assay [3], the TLR7-dIRR2_LEC was 0.02. Also, in assay [4], the TLR8-dIRR2_LEC amounted to 0.02.
Turning to `CCCCNc1nc(N)nc2cccc(CCc3ccccn3)c12` [Compound 12], the “TLR8-wt (LEC)” value in assay [1] stood at 0.79. For the same molecule, the “TLR7-wt (LEC)” value in assay [5] stood at 1.66.
For `CCCCNc1nc(N)nc2ccc(C#CC(C)O)cc12` (centres unmarked) [Compound 14], the “TLR8-wt (LEC)” value in assay [1] worked out at 4.77. In addition, the “TLR7-wt (LEC)” value in assay [5] is 0.65.
Regarding `CCCCNC(=O)c1cccc2nc(N)nc(NCCCC)c12` [Compound 15], the “TLR8-wt (LEC)” value in assay [1] was found to be 3.27. In addition, in assay [5], the “TLR7-wt (LEC)” value is 0.49.
The matching figures for `CCCCNc1nc(N)nc2ccc(CCC(C)O)cc12` (centres unmarked) [Compound 16]: 0.73 and 0.57.
The matching figures for `CCCCNc1nc(N)nc2ccc(C#N)cc12` [Compound 19]: 7.05 and over 25.
As for `CCCCNc1nc(N)nc2ccc(-c3cnn(C)c3)cc12` [Compound 20], the “TLR8-wt (LEC)” value in assay [1] is 2.55. Moreover, the “TLR7-wt (LEC)” value in assay [5] is listed as over 25.
As for `CCCCNc1nc(N)nc2ccc(C(C)=O)cc12` [Compound 22], the “TLR8-wt (LEC)” value in assay [1] worked out at 1.95. The “TLR7-wt (LEC)” value in assay [5] is given as 6.07.
As to `CCCCNc1nc(N)nc2ccc(C(C)O)cc12` (centres unmarked) [Compound 23], the “TLR8-wt (LEC)” value in assay [1] turned out to be 5.05. In addition, the “TLR7-wt (LEC)” value in assay [5] is given as 10.23.
Consider `CCCCNc1nc(N)nc2cc(C(=O)Nc3cccnc3)ccc12` [Compound 90], for which the “TLR7-wt (LEC)” value in assay [5] worked out at 0.42.
`CCCCNc1nc(N)nc2cc(C(=O)N3CCOCC3)ccc12` [Compound 91]: the “TLR8-wt (LEC)” value in assay [1] stood at 0.53. In addition, the “TLR7-wt (LEC)” value in assay [5] came to 0.13.
Take `CCCCNc1nc(N)nc2cc(C(=O)NCCN(C)C)ccc12` [Compound 92]: in assay [1], the “TLR8-wt (LEC)” value was 5.87. Moreover, the “TLR7-wt (LEC)” value in assay [5] was 1.53.
Turning to `CCCCNc1nc(N)nc2cc(C(=O)NCc3ccccn3)ccc12` [Compound 93], the “TLR8-wt (LEC)” value in assay [1] is 1.69. Moreover, the “TLR7-wt (LEC)” value in assay [5] is recorded as 0.77.
In the case of `CCCCNc1nc(N)nc2cc(C(=O)N(C)C)ccc12` [Compound 94], the “TLR8-wt (LEC)” value in assay [1] is recorded as 0.48. For the same molecule, the “TLR7-wt (LEC)” value in assay [5] worked out at 0.07.
For `CCCCNc1nc(N)nc2cc(C(=O)NCc3ccccc3)ccc12` [Compound 95], the “TLR8-wt (LEC)” value in assay [1] is given as 0.42. Besides, in assay [5], the “TLR7-wt (LEC)” value is given as 0.54.
As for `CCCCNc1nc(N)nc2cccc(CCc3ccc(OC)cc3)c12` [Compound 96], in assay [1], the “TLR8-wt (LEC)” value is listed as 16. For the same molecule, the “TLR7-wt (LEC)” value in assay [5] came out at 2.7.
For the molecule `CCCCNc1nc(N)nc2cccc(CCc3cccc(OC)c3)c12` [Compound 97], the “TLR8-wt (LEC)” value in assay [1] was 0.83. In assay [5], the “TLR7-wt (LEC)” value came to 0.6.
In the case of `CCCCNc1nc(N)nc2cccc(OCC(=O)OC)c12` [Compound 98], the “TLR8-wt (LEC)” value in assay [1] stood at 0.31. In assay [5], the “TLR7-wt (LEC)” value was 0.21.
